Experimental data published in patent US7572765B2, “Conformationally constrained parathyroid hormone (PTH) analogs” (The General Hospital Corporation, priority 2001, dated 2009).
Square brackets hold non-standard residues; d marks the D form. Ends that are not written are not given here. Peptide text beside a SMILES is read from it. hArg = N=C(N)NCCCC[C@H](N)C(=O)O; Nle = CCCC[C@H](N)C(=O)O; Aib = CC(C)(N)C(=O)O

What was measured:
[1] = molecular target: T1, human P1R (Homo sapiens, UniProt Q03431); experiment: Competition binding in HKRK-B28 cells; conditions: for binding of radiolabeled peptide to HKRK-B28 cells (in words): direct binding of the radioligand
T1 construct: expressed in transfected cells; host or cells: HKRK-B28 (porcine kidney LLC-PK1, stably transfected)
T1 sequence (Q03431 27-593): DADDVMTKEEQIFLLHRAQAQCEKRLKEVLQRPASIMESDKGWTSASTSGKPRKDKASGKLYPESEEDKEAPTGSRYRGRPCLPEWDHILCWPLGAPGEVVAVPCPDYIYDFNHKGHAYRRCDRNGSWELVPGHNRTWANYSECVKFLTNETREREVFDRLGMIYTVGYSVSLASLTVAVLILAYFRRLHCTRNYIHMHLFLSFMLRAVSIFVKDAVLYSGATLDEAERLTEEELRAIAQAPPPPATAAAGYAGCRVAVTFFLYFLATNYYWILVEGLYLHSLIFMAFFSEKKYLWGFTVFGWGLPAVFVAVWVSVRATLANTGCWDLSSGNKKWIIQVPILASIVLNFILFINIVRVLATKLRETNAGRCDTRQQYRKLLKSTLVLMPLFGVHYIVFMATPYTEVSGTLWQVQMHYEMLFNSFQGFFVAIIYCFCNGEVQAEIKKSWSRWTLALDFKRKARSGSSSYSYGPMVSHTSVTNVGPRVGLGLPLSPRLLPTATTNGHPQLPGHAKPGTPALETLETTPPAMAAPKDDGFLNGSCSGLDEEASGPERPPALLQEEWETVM
Description: (§1) Cell Culture. The cell line HKRK-B28 (Takasu, H., et al., J. Bone Miner. Res. 14:11-20 (1999)) was derived from the porcine kidney cell line, LLC-PK1 by stable transfection with plasmid DNA encoding the human P1R and expresses ˜280,000 receptors per cell. These cells, as well as COS-7 cells and SaOS-2-B10 cells, were cultured at […] in T-75 flasks ([…]) in Dulbecco's modified Eagle's medium (DMEM) supplemented with fetal bovine serum (10%), penicillin G (20 units/ml), streptomycin sulfate (20 μg/ml) and amphotericin B (0.05 μg/ml) in a humidified atmosphere containing 5% CO2. Stock solutions of EGTA/trypsin and antibiotics were from GIBCO; fetal bovine serum was from Hyclone Laboratories (Logan, Utah). COS-7 cells sub-cultured in 24-well plates were transfected with plasmid DNA (200 ng per well) encoding the wild-type human P1R or truncated human P1R deleted for residues (24-181) (Shimizu, M., et al., J. Biol. Chem. 275:21836-21843 (2000)) that was purified by cesium chloride/ethidium bromide density gradient centrifugation, and FuGENE 6 transfection reagent (Roche Indianapolis Ind.) according to the manufacturer's recommended procedure. All cells, in 24-well plates, were treated with fresh media and shifted to 33° C. for 12 to 24 h prior to assay.
Competition Binding. Binding reactions were performed with HKRK-B28 cells or in COS-7 cells in 24-well plates. The cells were rinsed with 0.5 mL of binding buffer, and then treated successively with 100 μL binding buffer, 100 μL of binding buffer containing various amounts of unlabeled competitor ligand, and 100 μL of binding buffer containing ca. 100,000 cpm of ^125I-[M]PTH(1-21) or ^125I-[Aib^1,3,M]PTH(1-21)} (ca. 26 fmol; final volume=300 μL). Incubations were 4 to 6 h at 4° C., at which time near equilibrium conditions were attained. Cells were then placed on ice, the binding medium was removed, and the monolayer was rinsed three times with 0.5 mL of cold binding buffer. The cells were subsequently lysed with 0.5 mL […] and counted for radioactivity. For each tracer and in each experiment, the non-specific binding was determined as the radioactivity that bound in the presence of the same unlabeled peptide at a concentration of 1 μM, and was ˜1% of total radioactivity added for each tracer. The maximum specific binding (B0) was the total radioactivity bound in the absence of competing ligand, corrected for nonspecific binding, and for each tracer, ranged from 8% to 20% of the total radioactivity added. Nonlinear regression was used to calculate binding IC50 values (see below). Scatchard transformations of homologous competition binding data derived from studies with 26 fmol of ^125I-[Aib^1,3,M]PTH(1-21) were employed for estimations of apparent equilibrium dissociation constant (kDapps) and total number of ligand binding sites (Bmax), assuming a single class of binding sites and equal affinities of the iodinated and non iodinated ligand.
(§2) Data Calculation. Calculations were performed using Microsoft® Excel. Nonlinear regression analyses of binding and cAMP dose-response data were performed using the four-parameter equation: yp=Min+[(Max−Min)/(1+(IC50/x)^slope)]. The Excel Solver function was utilized for parameter optimization, as described previously (Carter, P. H., et al., Endocrinology 140: 4972-4981 (1999); Bowen, W. P., and Jerman, J. C., Trends in Pharmacol. Sci. 16: 413-417 (1995)). Differences between paired data sets were statistically evaluated using a one-tailed Student's t-test, assuming unequal variances for the two sets.
The P1R-binding properties of these analogs were assayed in competition studies performed in […]. In previous studies, PTH(1-14) binding could not be detected using ^125I-PTH(1-34) and related N-terminally intact and relatively unmodified radioligands (Luck, M. D., et al., Molecular Endocrinology 13:670-680 (1999)). […]

[2] = molecular target: T1, human P1R; experiment: cAMP stimulation in HKRK-B28 cells; type: cell-based; conditions: for cAMP EMax(obs.): basal 4.0 ± 0.1 pmole/well not subtracted
Description: as §1
(§3) cAMP Stimulation. Stimulation of cells with peptide analogs was performed in 24-well plates. Cells were rinsed with 0.5 mL of binding buffer (50 mM Tris-HCI, […], 5 mM KCl, 2 mM CaCl2, 5% heat-inactivated horse serum, 0.5% fetal bovine serum, adjusted to pH 7.5 with HCl) and treated with 200 μL of cAMP assay buffer (Delbecco's modified Eagle's medium containing 2 mM 3-isobutyl-1-methylxanthine, 1 mg/mL bovine serum albumin, 35 mM Hepes-NaOH, pH 7.4) and 100 μL of binding buffer containing varying amounts of peptide analog (final volume=300 μL). The medium was removed after incubation for 30 to 60 minutes at room temperature, and the cells were frozen on dry ice, lysed with 0.5 mL 50 mM HCl, and refrozen ([…]). The cAMP content of the diluted lysate was determined by radioimmunoassay. The EC50 response values were calculated using nonlinear regression (see below).
as §2

[3] = molecular target: T2, P1R-delNt, truncated human P1R deleted for residues (24-181) (Homo sapiens, UniProt Q03431); experiment: cAMP stimulation in COS-7 cells expressing hP1R-delNt; type: cell-based; conditions: hP1R-delNT
T2 construct: expressed in transfected cells; host or cells: COS-7 (transient, FuGENE 6)
T2 sequence (Q03431 with tags, fused parts or gaps limits assumed): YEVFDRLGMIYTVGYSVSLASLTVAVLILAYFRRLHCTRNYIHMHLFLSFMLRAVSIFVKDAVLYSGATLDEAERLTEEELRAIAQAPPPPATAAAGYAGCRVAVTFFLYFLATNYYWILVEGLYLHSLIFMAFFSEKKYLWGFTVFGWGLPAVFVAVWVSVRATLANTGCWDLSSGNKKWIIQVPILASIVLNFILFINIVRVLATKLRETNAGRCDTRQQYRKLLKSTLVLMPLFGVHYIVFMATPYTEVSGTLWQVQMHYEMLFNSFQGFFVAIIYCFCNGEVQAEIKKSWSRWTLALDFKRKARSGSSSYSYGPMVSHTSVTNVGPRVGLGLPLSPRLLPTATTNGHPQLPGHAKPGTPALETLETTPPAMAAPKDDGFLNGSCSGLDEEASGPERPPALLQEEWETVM
Description: as §1, §3, §2
The possibility that the activity-enhancing effects of the Aib substitutions at positions 1 and 3 were mediated through the juxtamembrane (J) region of the receptor was investigated in COS-7 cells transiently transfected with P1R-delNt. P1R-delNt was a truncated P1R that lacked most of the amino-terminal extracellular domain.

[4] = molecular target: T2, P1R-delNt, truncated human P1R deleted for residues (24-181); experiment: Competition binding in COS-7 cells expressing hP1R-delNt; conditions: direct binding of the radioligand
[5] = HKRK-B28 cells, tracer 125I-[M]PTH(1-21)amide, 4 h at 4° C., N.B. = no binding detected at 10 μm peptide

Compound | Binding IC50 [1, 5] | EC50 [2] | cAMP EMax(obs.) [2] | also measured
CSCC[C@H](NC(=O)[C@H](CC(C)C)NC(=O)[C@H](CCC(N)=O)NC(=O)C(C)(C)NC(=O)[C@H](CCC(=O)O)NC(=O)[C@H](C)NC(=O)[C@@H](NC(=O)[C@H](C)N)C(C)C)C(=O)N[C@@H](Cc1c[nH]cn1)C(=O)N[C@@H](CCC(N)=O)C(=O)N[C@@H](CCCCNC(=N)N)C(=O)N[C@@H](C)C(=O)N[C@@H](CCCCN)C(=O)N[C@@H](Cc1c[nH]c2ccccc12)C(N)=O [Aib-5] (H-AVAE[Aib]QLMHQ[hArg]AKW-NH2) | N.B. | 66 µM | 169 ± 18 pmole/well | 
CC[C@H](C)[C@H](NC(=O)[C@H](CCC(=O)O)NC(=O)C(C)(C)NC(=O)[C@@H](NC(=O)C(C)(C)N)C(C)C)C(=O)N[C@@H](CCC(N)=O)C(=O)N[C@@H](CC(C)C)C(=O)N[C@@H](CCSC)C(=O)N[C@@H](Cc1c[nH]cn1)C(N)=O [[Aib^1,3]PTH(1-9)] (H-[Aib]V[Aib]EIQLMH-NH2) | did not bind detachably | > 10 µM | 10 ± 1 pmole/well | Binding IC50 ([1]; HKRK-B28 cells, tracer 125I-[M]PTH(1-21)amide, 4 h at 4° C., N.B. = no binding detected at 10 μm peptide, listed as [Aib^1,3]PTH (1-9)): N.B.; stimulation of cAMP accumulation (in words) [2]: Little or no stimulation of cAMP accumulation
CC[C@H](C)[C@H](NC(=O)[C@H](CCC(=O)O)NC(=O)[C@H](C)NC(=O)[C@@H](NC(=O)[C@H](C)N)C(C)C)C(=O)N[C@@H](CCC(N)=O)C(=O)N[C@@H](CC(C)C)C(=O)N[C@@H](CCSC)C(=O)N[C@@H](Cc1cnc[nH]1)C(=O)N[C@@H](CCC(N)=O)C(=O)N[C@@H](CCCCN=C(N)N)C(=O)N[C@@H](C)C(=O)N[C@@H](CCCCN)C(=O)N[C@@H](Cc1c[nH]c2ccccc12)C(N)=O [[M]PTH(1-14), [Ala^3,12,Gln^10,Har^11,Trp^14]PTH(1-14)amide, reference compound] (H-AVAEIQLMHQ[hArg]AKW-NH2) |  | 0.1 ± 0.02 µM |  | EC50 [3]: 0.04 ± 0.002 µM; IC50 [1, 5]: 1.3e-05 M
^125I-[Ala^3,12Nle^8Gln^10,Har^11,Trp^14,Tyr^15]PTH(1-15)amide (AVAEIQL[Nle]HQ[hArg]AKWY-NH2; also: 125I-labeled, place not given here) [reference compound] |  |  |  | binding of radiolabeled peptide to HKRK-B28 cells (in words) [1]: did not bind detectably
CC[C@H](C)[C@H](NC(=O)[C@H](CCC(=O)O)NC(=O)[C@H](C)NC(=O)[C@@H](NC(=O)[C@H](C)N)C(C)C)C(=O)N[C@@H](CCC(N)=O)C(=O)N[C@@H](CC(C)C)C(=O)N[C@@H](CCSC)C(=O)NC(C)(C)C(=O)N[C@@H](CCC(N)=O)C(=O)N[C@@H](CCCCNC(=N)N)C(=O)N[C@@H](C)C(=O)N[C@@H](CCCCN)C(=O)N[C@@H](Cc1c[nH]c2ccccc12)C(N)=O [Aib-9] (H-AVAEIQLM[Aib]Q[hArg]AKW-NH2) | N.B. |  | 51 ± 8 pmole/well | 
CC[C@H](C)[C@H](NC(=O)[C@H](CCC(=O)O)NC(=O)[C@H](C)NC(=O)[C@@H](NC(=O)[C@H](C)N)C(C)C)C(=O)N[C@@H](CCC(N)=O)C(=O)N[C@@H](CC(C)C)C(=O)N[C@@H](CCSC)C(=O)N[C@@H](Cc1c[nH]cn1)C(=O)N[C@@H](CCC(N)=O)C(=O)NC(C)(C)C(=O)N[C@@H](C)C(=O)N[C@@H](CCCCN)C(=O)N[C@@H](Cc1c[nH]c2ccccc12)C(N)=O [Aib-11] (H-AVAEIQLMHQ[Aib]AKW-NH2) | N.B. | 67 µM | 96 ± 18 pmole/well | 
^125I-[M]PTH(1-21): radioiodinated [M]PTH(1-21) tracer radioligand (AVAEIQL[Nle]HQ[hArg]AKWLASVRRY-NH2; also: 125I radiolabel, position not given here) [reference compound] |  |  |  | binding of radioligand to P1R-delNt (in words) [4]: did not bind detectably; binding of radiolabeled peptide to HKRK-B28 cells (in words) [1]: bound adequately
CC[C@H](C)[C@H](NC(=O)[C@H](CCC(=O)O)NC(=O)[C@H](C)NC(=O)[C@@H](NC(=O)[C@H](C)N)C(C)C)C(=O)N[C@@H](CCC(N)=O)C(=O)N[C@@H](CC(C)C)C(=O)NC(C)(C)C(=O)N[C@@H](Cc1c[nH]cn1)C(=O)N[C@@H](CCC(N)=O)C(=O)N[C@@H](CCCCNC(=N)N)C(=O)N[C@@H](C)C(=O)N[C@@H](CCCCN)C(=O)N[C@@H](Cc1c[nH]c2ccccc12)C(N)=O [Aib-8] (H-AVAEIQL[Aib]HQ[hArg]AKW-NH2) | N.B. |  | 34 ± 7 pmole/well | 
